Measured values as given in patent publication US7048943B2, “Carotenoid-loaded liposomes” (Yissum Research Development Company of the Hebrew …, priority 2001, dated 2006).
Converted amounts (≈) assume the structure as drawn. Values belong to the compound of their own block, whether it stands above or below them.

Key:
[1] = Solubility of lycopene in organic solvents (saturation concentration, HPLC and absorbance at 472 nm)
Procedure: Lycopene Quantification—lycopene was analyzed for degradation and quantified by The HPLC buffer used comprised acetonitrile: methanol: methylene chloride: hexane and a ratio of 850:100:25:25 (all HPLC grade, Hoffman La Roche). Quantification was based on a standard curve obtained for lycopene (LycoRed standard. The amount of lycopene was also determined by absorbance at 472 nm.
All samples were diluted with ethanol before measurement. The saturation concentrations of the lycopene were determined by BPLC and by the use of a spectrophotometer (absorbance at 472 nm, where the area under the peak was measured). The saturation limit was defined as the concentration where a precipitate first appears. The concentration of lycopene at saturation was determined after removal of precipitate by high speed centrifugation from the absorbance at 472 nm (the λmax for the ‘red’ form of lycopene) using double beam UVikon 860 (Kontron, Switzerland) spectrometer.
Both types of lycopene were in a powder form before dissolving in cyclohexane. […] These measures were taken after a year and a half of storage at −20° C.

[2] = Entrapment of lycopene in MLV liposomes; type: physicochemical; conditions: liposomes composed of lipid/lycopene 10:1
Procedure: Method of Preparation—The phospholipids were dissolved in cyclohexane at a w/v ratio of 1 mg phospholipid per 10 ml cyclohexane. The dissolving required heating for several seconds at 60° C. and/or sonication for up to 3 minutes. Lycopene was added as powder to the solution, which was then vortexed. The resulting solution was lyophilized overnight and kept at −20° C. until use. To form multilamellar liposome (MLV), 2 ml of 0.9% NaCl were added to the lyophilizate followed by vortex to yield MLV encapsulated lycopene.
Method of Preparation—Lycopene was dissolved in cyclohexane at a w/v ratio of 1 mg of lycopene per 2 ml of cyclohexane. The dissolving required heating for several seconds at 60° C. and sonication for up to 3 minutes until all the lycopene was dissolved. The phospholipids were added as powder to the solution and the mixture was mixed with vortex. The solution was lyophilized overnight in bottles and closed in vacuum. The lyophilized bottles were kept at −20° C. until use.
To form MLV encapsulated lycopene, 2 ml of 0.9% NaCl were added followed by vortex. The percentage of entrapment of lycopene in the formulation was 85.31%.
In general, the population of the liposomes was heterogeneous. […] The 75% lycopene entrapment in liposomes composed of lipid/lycopene 10:1 was measured, wherein 17.5% of the lycopene was entrapped in the MLV. […]

[3] = Partition of lycopene in tri-phase system (soya oil / water / egg PC SUV); type: physicochemical; conditions: for Kp Lip/Oil: partition coefficient liposome/oil, liposomes 10% by weight; for Liposome/oil: ratio of lycopene in liposomal phase to oil phase; for Insoluble lycopene / lycopene concentration, Liposomal phase / lycopene concentration, Oil phase: soya oil / water / egg PC SUV, highest lycopene level; for lycopene concentration, Liposomal phase / lycopene concentration, Oil phase: mixed 2 hours at room temperature
Procedure: The partition coefficient of lycopene in tri-phase systems was also evaluated. Tri-phase systems may serve for the determination of availability of the lycopene into biological membranes. The system used herein was composed from […]: soya oil in which the lycopene was present and water in which liposomes (10% by weight) in the form of small unilamellar vesicles (SUV) composed of pure egg phosphatidyl choline are present as the third phase.
The small unilamellar liposomes (SUV) composed of pure lipid (Ludwigshafen, Germany) egg phosphatidylcholine (egg PC) of an 80 nm were prepared and characterized as described by Haran et al. [Haran G. et al. Biochim. Biophys. Acta 1151:201–215 (1993)]. SUV egg PC size was ˜80 nm. The partition coefficient in the three phase system was performed at three different levels of lycopene—low, medium and high amounts, using crystalline lycopene (originated from fungi), 92% powder (LycoRed), 75% powder lycopene (LycoRed) and oleoresin (containing 6.06% by weight of lycopene). In case of the highest level, lycopene from tomato concentrate (containing 0.073% lycopene) was also evaluated.
Preparation of the three phase systems included the following steps; first, lycopene was dispersed in soya oil (4 ml) by ultrasonic irradiation in an ultrasonic bath (35 kHz, 285W). Then, the precipitate was removed, aliquots of the oil were diluted in isopropanol with ratio ranging from 1:10 to 1:100 and the concentration of lycopene in oil phase was determined.
Then, to soya oil saturated with lycopene (1.5 ml) egg PC SUV in water (1.5 ml) were added to form the three phase system. The system was then mixed for 2 hours at room temperature using a flask shaker (A5-6021, St. John Associate Inc.), after which aliquots of the oil phase and the liposomal aqueous phase were removed.
In particular, the aqueous phase was extracted using heptane into which more than 98% of the lycopene was extracted. This extract was evaporated to dryness and the residue was dissolved in 200 μl isopropanol and analyzed by HPLC to determine the amount of lycopene present in the liquid and oil phase.
The concentration of lycopene in the liposome phase was calculated based on the procedure of Samuni and Barenholz [Samuni A. M. and Barenholz Y, Biol. Med. 22:1165–1174 (1996); Barenholz Y. et al. M. Biophys. J. 59:110–124 (1991)]. The following Table 4 summarizes the results obtained.

CD-1 Mice = assay: Oxazolone induced ear edema; type: in vivo; conditions: topical on left ear 1 hour after 2% oxazolone challenge, ear punch weight after 24 hours, versus vehicle group
Procedure: CD-1 Mice were induced with 3% oxazolone (Sigma) (30 mg/ml) made up in corn oil: acetone on a shaved abdomen. Five days later the mice were challenged with a 2% oxazolone (20 (mg/ml) in acetone on the left ear, right ear was untreated. One hour after challenging, the formulations examined (E1–E8) in a 70% EtOH/30% propylene glycol vehicle were applied onto the left ear. After 24 hours the mice were sacrificed and 7 mm ear punches were taken. The ear punches were placed on a scale and the difference between the treated and untreated ears was measured.
The percent inhibition was calculated by comparing the means of each group to the vehicle group. The positive control was hydrocortisone.

[4] = tested on: Epidermal equivalents (normal, human-derived epidermal keratinocytes); assay: Protection against UV induced loss of viability (LDH release); type: cell-based
Procedure: (§1) Cell Culture • Epidermal equivalents (4.0 cm^2) were purchased from SkinEthic (Nice, France). Each equivalent served as a multilayered model of the epidermis consisting of normal, human-derived epidermal keratinocytes. Equivalents were cultured in a defined hydrocortisone and phenol red free medium supplied from SkinEthic. Instruments • Kontron (Switzerland) HPLC system. 425 pump, 430 detector, 460 automatic injector and 450 data analysis system. Column: LiChroCART®250-4, RP-select B (5 μm), Merck catalog no. […]
(§2) Twenty four hours post irradiation, the culture medium was collected from the treated epidermal equivalents and evaluated for IL-1α release levels using a commercially available ELISA kit. Cell viability was determined immediately post irradiation using LDH leakage measurments.
(§3) Epidermal Equivalents were purchased from SkinEthic (Nice, France) and cultured in phenol free, hydrocortisone free media. […] Forty-eight hours post irradiation, the medium beneath each equivalent was collected and analyzed for secreted IL-1α by ELISA (Endogen). LDH level (Boehringer Mannheim) was measured immediately post irradiation and after 48 hours to determine the effect of treatment and UV exposure on cell viability. […]

[5] = tested on: Epidermal equivalents (normal, human-derived epidermal keratinocytes); assay: Protection against UV induced IL-1α release; type: cell-based; conditions: at 0.01%, UV irradiation
Procedure: as §1, §2, §3

SMILES: C[C@]12CCC(=O)C=C1CC[C@@H]1[C@@H]2[C@@H](O)C[C@@]2(C)[C@H]1CC[C@]2(O)C(=O)CO [Hydrocortisone, hydrocortisone]
% inhibition (CD-1 Mice): 92.6%

SMILES: O=C1O[C@H]([C@@H](O)CO)C(O)=C1O [Ascorbic acid, ascorbic acid]
LDH Release, protection, First assay ([4]; at 0.01%, UV irradiation): 100% protection with 0.01%
IL-1α release, protection, First assay [5]: 100% protection with 0.01%

SMILES: CC(C)=CCC/C(C)=C/C=C/C(C)=C/C=C/C(C)=C/C=C/C=C(C)/C=C/C=C(C)/C=C/C=C(\C)CCC=C(C)C [Crystalline, lycopene, reference compound]
Kp Lip/Oil [3]: 0.00952
Liposome/oil [3]: 0.00095
Insoluble lycopene [3]: 6.9740 mμ
lycopene concentration, Liposomal phase [3]: 0.0001 mμ
lycopene concentration, Oil phase [3]: 0.1458 mμ

SMILES: O=C(O)CCCC[C@@H]1CCSS1 (racemic) [Lipoic Acid, lipoic acid]
Loss of viability (LDH), LDH release, protection ([4]; at 1%, UV irradiation (Table 7C)): 100% protection with 1%

Next, values leading:

solubility ([1]; cyclohexane, organic solvent or mixture, thermodynamic from solid, maximal solubility in cyclohexane, after a year and a half of storage at −20° C.): 2650 µM (≈ 1420 µg/mL)
SMILES: CC(C)=CCC/C(C)=C/C=C/C(C)=C/C=C/C(C)=C/C=C/C=C(C)/C=C/C=C(C)/C=C/C=C(\C)CCC=C(C)C [lycopene 95%, lycopene]

lycopene entrapped in the MLV [2]: 17.5%
Kp Lip/Oil ([3]; listed as Powder 75%): 0.4972
Liposome/oil ([3]; listed as Powder 75%): 0.0497
Insoluble lycopene ([3]; listed as Powder 75%): 5.7899 mμ
lycopene concentration, Liposomal phase ([3]; listed as Powder 75%): 0.0062 mμ
lycopene concentration, Oil phase ([3]; listed as Powder 75%): 0.1239 mμ
maximal solubility in cyclohexane ([1]; after a year and a half of storage at −20° C.): 1960 µM
Concentration (mM)/HPLC ([1]; saturation in Cyclohexane): 0.22 mM
Concentration (mM)/HPLC ([1]; saturation in Soy oil): 0.14 mM
Concentration (mM)/HPLC ([1]; saturation in ethanol): 0.059 mM
Concentration (mM)/HPLC ([1]; saturation in i-propanol): 0.037 mM
Concentration (mM)/HPLC ([1]; saturation in n-hexane): 0.18 mM
Concentration (mM)/HPLC ([1]; saturation in t-butanol): 0.016 mM
SMILES: CC(C)=CCC/C(C)=C/C=C/C(C)=C/C=C/C(C)=C/C=C/C=C(C)/C=C/C=C(C)/C=C/C=C(\C)CCC=C(C)C [lycopene 75%, lycopene]

solubility in an aqueous phase ([3]; conclusion from tri-phase system): very low, if any
SMILES: CC(C)=CCC/C(C)=C/C=C/C(C)=C/C=C/C(C)=C/C=C/C=C(C)/C=C/C=C(C)/C=C/C=C(\C)CCC=C(C)C [lycopene]

Kp Lip/Oil [3]: 0.4141
Liposome/oil [3]: 0.0414
Insoluble lycopene [3]: 6.7084 mμ
lycopene concentration, Liposomal phase [3]: 0.0020 mμ
lycopene concentration, Oil phase [3]: 0.0495 mμ
SMILES: CC(C)=CCC/C(C)=C/C=C/C(C)=C/C=C/C(C)=C/C=C/C=C(C)/C=C/C=C(C)/C=C/C=C(\C)CCC=C(C)C [Power 92% Powder, lycopene]
